Test results as given in patent publication US20090269734A1, “METHOD FOR DETERMINATION OF RECOGNITION SPECIFICITY OF VIRUS FOR RECEPTOR SUGAR CHAIN” (priority 2005, published 2009).

What was measured:
[1] = system: human A virus: A/Memphis/1/71/(H3N2); format: binding, human influenza A virus
human B virus: B/Lee/40 = format: binding, human influenza B virus
[2] = system: avian A virus: A/duck/Hong Kong/24/76 (H3N2); format: binding, avian influenza A virus

For “Poly (Neu5Ac α2-3Gal β1-4GlcNAc β-pAP/α-PGA)”, the “recognition of the polymer with sialo-oligosaccharide by the human influenza A virus (absorbency at 492 nm)” value [1] was “weak”, the “recognition of the polymer with sialo-oligosaccharide by the human influenza B virus (absorbency at 492 nm)” value (human B virus: B/Lee/40) was “weak” and the “recognition of the polymer with sialo-oligosaccharide by the avian influenza A virus (absorbency at 492 nm)” value [2] was “strongly recognizes”.
For “Poly (Neu5Ac α2-6Gal β1-4GlcNAc β-pAP/α-PGA)”, the “recognition of the polymer with sialo-oligosaccharide by the human influenza A virus (absorbency at 492 nm)” value [1] was “strongly recognizes”, the “recognition of the polymer with sialo-oligosaccharide by the human influenza B virus (absorbency at 492 nm)” value (human B virus: B/Lee/40) was “strongly recognizes” and the “recognition of the polymer with sialo-oligosaccharide by the avian influenza A virus (absorbency at 492 nm)” value [2] was “weak”.
